Converted amounts (≈) assume the structure as drawn.
Conditions: buffer; pH 7.4; 200.0 µM

**Q.** With `O=C(Nc1c(Cl)ccc2nsnc12)c1ccc([N+](=O)[O-])o1` as the compound, how does the solubility kinetic read?
**A.** The solubility kinetic was greater than 48.7 µg/mL.

**Q.** With `CCN1CCN(C(C)CCc2ccccc2)CC1` (stereo not given) as the compound, how does the solubility kinetic read?
**A.** The solubility kinetic was 30.6 µg/mL (≈ 124 µM).

**Q.** With `CSc1ncccc1C(=O)OCC(=O)N1CCCC1` as the compound, how does the solubility kinetic read?
**A.** The solubility kinetic was greater than 42.1 µg/mL.

**Q.** Which solubility kinetic does the source give for `CCOc1cc(C(=O)NCc2ccco2)cc(OCC)c1OCC` here?
**A.** The solubility kinetic was 49.7 µg/mL (≈ 149 µM).

**Q.** Which solubility kinetic does the source give for `Cc1noc(C)c1NC(=O)NC(c1ccccc1)c1ccccc1` here?
**A.** Its solubility kinetic is 10.2 µg/mL (≈ 31.7 µM).

**Q.** For `COC(=O)C1=C(C)NC(=O)NC1c1ccco1` (stereo not given), which solubility kinetic is on record?
**A.** Its solubility kinetic is 27.8 µg/mL (≈ 118 µM).

**Q.** Which solubility kinetic does the source give for `O=[N+]([O-])c1cccc(N2Cc3ccccc3C2)c1` here?
**A.** Its solubility kinetic is 7.9 µg/mL (≈ 32.9 µM).

**Q.** For `O=C(Nc1ccccc1)OCCOc1ccccc1Br`, which solubility kinetic is on record?
**A.** The solubility kinetic was less than 0.7 µg/mL.

**Q.** With `N/C(=N\OC(=O)CCCc1ccccc1)c1ccccc1Cl` as the compound, how does the solubility kinetic read?
**A.** Its solubility kinetic is 11.4 µg/mL (≈ 36 µM).

**Q.** Which solubility kinetic does the source give for `S=C(NCCc1c[nH]c2ccccc12)NC1CCCCC1` here?
**A.** The solubility kinetic was 2.8 µg/mL (≈ 9.29 µM).

**Q.** For `CC1c2cc3c(cc2CCN1CC(=O)Nc1ccccc1)OCCCO3` (stereo not given), which solubility kinetic is on record?
**A.** The solubility kinetic was 3.9 µg/mL (≈ 11.1 µM).

**Q.** Which solubility kinetic does the source give for `FC(F)(F)c1cccc(-n2cc(-c3ccccc3)[nH]c2=S)c1` here?
**A.** The solubility kinetic was less than 0.3 µg/mL.

**Q.** With `CC(C)=CC(=O)OCC(=O)Nc1ccc(Cl)cc1` as the compound, how does the solubility kinetic read?
**A.** Its solubility kinetic is 36.3 µg/mL (≈ 136 µM).

**Q.** With `O=C(O)CNC(=S)N(Cc1ccccc1Cl)C1CCCC1` as the compound, how does the solubility kinetic read?
**A.** The solubility kinetic was greater than 49 µg/mL.

**Q.** With `Cc1cc(=O)oc2cc(OCCSCCN3CCCC3)ccc12` as the compound, how does the solubility kinetic read?
**A.** Its solubility kinetic is greater than 50 µg/mL.

**Q.** With `CCOC(=O)CC1C(=O)NCCN1Cc1ccc(OC)c(OC)c1` (stereo not given) as the compound, how does the solubility kinetic read?
**A.** Its solubility kinetic is greater than 50.5 µg/mL.

**Q.** With `OC(CNCc1ccccc1)c1ccccc1` (stereo not given) as the compound, how does the solubility kinetic read?
**A.** The solubility kinetic was greater than 34.1 µg/mL.

**Q.** For `Cc1cc(=O)[nH]c(SCC(=O)NCC2CCCCC2)c1C#N`, which solubility kinetic is on record?
**A.** Its solubility kinetic is greater than 47.9 µg/mL.

**Q.** For `CC(C)(C)c1cc(CCC(=O)N2CCCC2)cc(C(C)(C)C)c1O`, which solubility kinetic is on record?
**A.** Its solubility kinetic is 43.8 µg/mL (≈ 132 µM).

**Q.** With `CC(=O)N1CCN(c2ccccc2NC(=O)c2cccs2)CC1` as the compound, how does the solubility kinetic read?
**A.** The solubility kinetic was greater than 49.4 µg/mL.

**Q.** For `Clc1ccccc1Nc1nc(-c2ccncc2)nc2ccccc12`, which solubility kinetic is on record?
**A.** Its solubility kinetic is 0.8 µg/mL (≈ 2.4 µM).

**Q.** Which solubility kinetic does the source give for `Cc1ccccc1OC(C)C(=O)NCCC1=CCCCC1` (stereo not given) here?
**A.** Its solubility kinetic is 19.6 µg/mL (≈ 68.2 µM).

**Q.** For `COc1ccccc1NS(=O)(=O)c1cccc(NC(=O)c2cncc(Br)c2)c1`, which solubility kinetic is on record?
**A.** The solubility kinetic was 6.4 µg/mL (≈ 13.8 µM).

**Q.** With `CC(=O)Nc1cccc(-c2nc3ccccc3[nH]2)c1` as the compound, how does the solubility kinetic read?
**A.** The solubility kinetic was greater than 37.7 µg/mL.

**Q.** For `COc1ccc(C(C)(C)C)cc1NC(=O)CCNC(=O)c1ccco1`, which solubility kinetic is on record?
**A.** Its solubility kinetic is greater than 51.7 µg/mL.

**Q.** For `Cc1cccc(NS(=O)(=O)c2ccc([N+](=O)[O-])cc2)n1`, which solubility kinetic is on record?
**A.** The solubility kinetic was 39.4 µg/mL (≈ 134 µM).

**Q.** Which solubility kinetic does the source give for `Nc1nc(-c2c(Cl)cccc2Cl)no1` here?
**A.** The solubility kinetic was 32.7 µg/mL (≈ 142 µM).

**Q.** Which solubility kinetic does the source give for `Cc1ccc(Sc2ncccc2O)cc1` here?
**A.** Its solubility kinetic is 17.4 µg/mL (≈ 80.1 µM).

**Q.** With `Cc1ccn2cc(-c3cccc([N+](=O)[O-])c3)nc2c1` as the compound, how does the solubility kinetic read?
**A.** The solubility kinetic was 5.7 µg/mL (≈ 22.5 µM).

**Q.** For `COc1ccc(/C=C2/SC(=S)NC2=O)cc1OCc1ccccc1`, which solubility kinetic is on record?
**A.** Its solubility kinetic is less than 0.8 µg/mL.

**Q.** For `CN(C)S(=O)(=O)c1cccc(C(=O)NC2CCSc3ccccc32)c1` (stereo not given), which solubility kinetic is on record?
**A.** The solubility kinetic was 4.8 µg/mL (≈ 12.7 µM).

**Q.** For `CN1CCc2c1nc1ccccc1c2NC(=O)CN1CCCC1`, which solubility kinetic is on record?
**A.** The solubility kinetic was 28.9 µg/mL (≈ 93.1 µM).

**Q.** With `Cc1occc1C(=O)NCc1nc(-c2ccc(Cl)cc2)no1` as the compound, how does the solubility kinetic read?
**A.** Its solubility kinetic is 37.8 µg/mL (≈ 119 µM).

**Q.** Which solubility kinetic does the source give for `Cc1ccccc1C1NC(=O)c2ccccc2O1` (stereo not given) here?
**A.** Its solubility kinetic is 18.3 µg/mL (≈ 76.5 µM).

**Q.** Which solubility kinetic does the source give for `Cc1ccc(S(=O)(=O)NC(=O)c2ccc(F)cc2)c(C)c1` here?
**A.** Its solubility kinetic is greater than 46.1 µg/mL.

**Q.** With `O=[N+]([O-])c1ccc(NC(=S)NCc2ccc(F)cc2)cc1` as the compound, how does the solubility kinetic read?
**A.** The solubility kinetic was 4.5 µg/mL (≈ 14.7 µM).

**Q.** For `CN(CC(=O)NCc1cccnc1)S(=O)(=O)c1ccc(F)cc1`, which solubility kinetic is on record?
**A.** The solubility kinetic was greater than 50.6 µg/mL.

**Q.** For `NC(=NC(=O)c1ccc(OCC(F)(F)F)nc1)c1ccccc1`, which solubility kinetic is on record?
**A.** Its solubility kinetic is 6.6 µg/mL (≈ 20.4 µM).

**Q.** Which solubility kinetic does the source give for `O=C(NC1CCCc2ccccc21)c1ccccn1` (stereo not given) here?
**A.** The solubility kinetic was 35.9 µg/mL (≈ 142 µM).

**Q.** With `Cc1cc(C(=O)Nc2ccc(F)cc2)c2ccccc2n1` as the compound, how does the solubility kinetic read?
**A.** Its solubility kinetic is less than 0.3 µg/mL.

**Q.** For `Cc1c(NC(=O)C(C)Oc2cccc(F)c2)c(=O)n(-c2ccccc2)n1C` (stereo not given), which solubility kinetic is on record?
**A.** The solubility kinetic was greater than 55.4 µg/mL.

**Q.** Which solubility kinetic does the source give for `COCCCNC(=S)Nc1ccccc1[N+](=O)[O-]` here?
**A.** The solubility kinetic was greater than 40.4 µg/mL.

**Q.** Which solubility kinetic does the source give for `O=C(CCc1ccccc1)NCC1OCCc2ccccc21` (stereo not given) here?
**A.** Its solubility kinetic is greater than 44.3 µg/mL.

**Q.** For `COc1ccc(Nc2nc(N)c([N+](=O)[O-])c(NC3CCCCC3)n2)cc1`, which solubility kinetic is on record?
**A.** Its solubility kinetic is 0.2 µg/mL (≈ 0.558 µM).

**Q.** For `O=C1CCc2ccc(NS(=O)(=O)c3ccc(F)cc3)cc2N1`, which solubility kinetic is on record?
**A.** The solubility kinetic was greater than 48.1 µg/mL.

**Q.** Which solubility kinetic does the source give for `N/C(=N\OC(=O)/C=C/c1ccccc1Cl)c1ccncc1` here?
**A.** The solubility kinetic was 28.2 µg/mL (≈ 93.5 µM).

**Q.** For `O=C(Nc1nccs1)C1CCN(S(=O)(=O)c2ccccc2)CC1`, which solubility kinetic is on record?
**A.** The solubility kinetic was 43.7 µg/mL (≈ 124 µM).

**Q.** For `Cc1ccccc1NC(=O)NC(C)(C)CC(C)(C)C`, which solubility kinetic is on record?
**A.** The solubility kinetic was 1.3 µg/mL (≈ 4.95 µM).

**Q.** For `Cc1ccc(C(=O)Cc2nc3ccccc3[nH]2)cc1`, which solubility kinetic is on record?
**A.** The solubility kinetic was 30.5 µg/mL (≈ 122 µM).

**Q.** For `COc1ccc(S(=O)(=O)N2CCCC2)cc1C(=O)O`, which solubility kinetic is on record?
**A.** The solubility kinetic was greater than 42.8 µg/mL.

**Q.** Which solubility kinetic does the source give for `O=C(COC(=O)c1ccc[n+]([O-])c1)Nc1ccccc1OC(F)F` here?
**A.** Its solubility kinetic is greater than 50.7 µg/mL.

**Q.** Which solubility kinetic does the source give for `O=[N+]([O-])c1ccc(N2CCN(C(=S)Nc3ccc(F)cc3)CC2)cc1` here?
**A.** Its solubility kinetic is 0.4 µg/mL (≈ 1.11 µM).

**Q.** For `Clc1nssc1=Nc1ccc(Br)cc1`, which solubility kinetic is on record?
**A.** The solubility kinetic was 1.4 µg/mL (≈ 4.55 µM).

**Q.** Which solubility kinetic does the source give for `CC1CCCCN1C(C(=O)O)c1ccccc1.Cl` (stereo not given) here?
**A.** The solubility kinetic was greater than 40.5 µg/mL.

**Q.** With `Cc1ccc2c3c([nH]c2c1)C(=O)CC(C)(C)S3` as the compound, how does the solubility kinetic read?
**A.** Its solubility kinetic is less than 0.5 µg/mL.

**Q.** Which solubility kinetic does the source give for `CC(C)n1c(CN(C)c2ccccc2)nc2ccccc21.Cl` here?
**A.** Its solubility kinetic is 42.4 µg/mL.

**Q.** With `S=C(NCc1ccccc1)Nc1ccc2ccccc2c1` as the compound, how does the solubility kinetic read?
**A.** The solubility kinetic was 0.9 µg/mL (≈ 3.08 µM).

**Q.** With `CCOC(=O)C1CNc2cc(S(=O)(=O)CC)ccc2O1` (stereo not given) as the compound, how does the solubility kinetic read?
**A.** The solubility kinetic was greater than 44.9 µg/mL.

**Q.** Which solubility kinetic does the source give for `N/C(=N\OC(=O)c1ccoc1)c1ccc(Br)cc1` here?
**A.** Its solubility kinetic is 9.2 µg/mL (≈ 29.8 µM).

**Q.** For `Cc1ccc(NC(=O)c2oc3ccccc3c2COC(C)C)cc1S(=O)(=O)N1CCOCC1`, which solubility kinetic is on record?
**A.** Its solubility kinetic is 3.6 µg/mL (≈ 7.62 µM).

From PubChem BioAssay AID1996
